Results taken from US8822509B2, “Pain-relieving compositions and uses therefor” (priority 2006, dated 2014).
Like-named read-outs stand apart in the source and are kept apart here. Marks after values point to notes of the source that are not given here.

What was measured:
[1] = target: T1, μ-opioid receptors (MOP receptors) (Mus musculus, UniProt P42866); format: cell-based
T1 construct: expressed in transfected cells; host or cells: HEK293

[2] = In vitro NO release (Total NOx, modified Griess reagent assay); settings: assay of Example 9; for 1 Hour Total NOx: NOx analysis at 1 hour; for 6 Hours Total NOx: NOx analysis at 6 hours
Experimental: Briefly, HEK-MOP cells were seeded at 1×10^5 cells/mL and grown in 10 cm plates to 90% confluence. Four hours prior to experimentation, cell medium was replaced with phenol red-free DMEM. […] Following removal of each supernatant sample, it was replaced with 500 μL of phenol red-free DMEM. Samples were immediately placed on ice until NOx concentrations were quantified.
Sample aliquots (100 μL) were added to 96-well plates in duplicates. Nitrate was first converted to nitrite to determine total NOx concentrations with the addition of 100 μL aliquots of vanadium (III) chloride in 1M HCl (800 mg/100 mL) per well, followed by 100 μL aliquots of modified Griess reagent which converted nitrite to a deep purple azo derivative for spectrophotometric quantification at 560 nm using an Envision Multilabel Plate Reader (PerkinElmer Life Sciences). […] Total NOx and nitrite concentration was determined through inverse prediction against the nitrite standard curve.

[3] = test system: mechanical allodynia in rats hyporesponsive to morphine; experiment: Relief of mechanical allodynia (PWT) in rats hyporesponsive to morphine; format: in vivo
[4] = target: T1, μ-opioid receptors (MOP receptors); format: cell-based; remark: listed apart in the source
Experimental: Briefly, HEK-MOP cells were pre-incubated with 2% (2-hydroxypropyl)-β-cyclodextrin (βCD) for 1 h at 37° C. to deplete cholesterol from caveloae in the cell membrane. Cells were washed with DMEM and then utilized in the forskolin-stimulated cAMP assay as described above. […] Cells were washed with DMEM and then utilized in the forskolin-stimulated cAMP assay as described above.

T1 sequence (P42866 whole entry): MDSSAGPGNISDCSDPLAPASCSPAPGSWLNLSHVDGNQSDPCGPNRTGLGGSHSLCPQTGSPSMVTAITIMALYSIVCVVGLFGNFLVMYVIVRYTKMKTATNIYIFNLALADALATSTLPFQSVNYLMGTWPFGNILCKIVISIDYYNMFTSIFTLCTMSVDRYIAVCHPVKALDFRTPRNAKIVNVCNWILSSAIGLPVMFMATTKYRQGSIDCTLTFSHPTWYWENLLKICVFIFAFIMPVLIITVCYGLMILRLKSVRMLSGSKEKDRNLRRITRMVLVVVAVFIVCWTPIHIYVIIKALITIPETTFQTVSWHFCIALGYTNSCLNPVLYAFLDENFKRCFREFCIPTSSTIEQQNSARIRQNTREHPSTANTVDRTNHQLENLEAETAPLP

| SMILES | 1 Hour Total NOx [2] [µM] | 6 Hours Total NOx [2] [µM] | % of forskolin stimulated cyclic AMP response ([1]; Conc 10^−10 M) | % of forskolin stimulated cyclic AMP response ([1]; Conc 10^−12 M) | % of forskolin stimulated cyclic AMP response ([4]; Conc 10^−3 M) [%] | % of forskolin stimulated cyclic AMP response ([4]; Conc 10^−4 M) | % of forskolin stimulated cyclic AMP response ([4]; Conc 10^−5 M) | % of forskolin stimulated cyclic AMP response ([4]; Conc 10^−6 M) | % of forskolin stimulated cyclic AMP response ([4]; Conc 10^−7 M) [%] | % of forskolin stimulated cyclic AMP response ([4]; Conc 10^−8 M) | % of forskolin stimulated cyclic AMP response ([4]; Conc 10^−9 M) | % of forskolin stimulated cyclic AMP response ([4]; Conc 10^−11 M) [%] | % of forskolin stimulated cyclic AMP response ([4]; Conc 10^−13 M) | % of forskolin stimulated cyclic AMP response ([4]; Conc 10^−14 M) | % of forskolin stimulated cyclic AMP response ([4]; Conc 10^−15 M) | % of forskolin stimulated cyclic AMP response ([4]; Conc 10^−16 M) [%] | % of forskolin stimulated cyclic AMP response ([4]; Conc 10^−17 M) | % of forskolin stimulated cyclic AMP response ([4]; Conc 10^−18 M) | also measured |
| --- | --- | --- | --- | --- | --- | --- | --- | --- | --- | --- | --- | --- | --- | --- | --- | --- | --- | --- | --- |
| O=C(O)CCCCO[N+](=O)[O-] [Compound 33, 5-nitratopentanoic acid] | 13.14 | 67.69 |  |  |  |  |  |  |  |  |  |  |  |  |  |  |  |  | inhibition of forskolin-stimulated cyclic AMP formation ([1]; μm to mm range (so in the source)): dose dependent inhibition; relief of mechanical allodynia ([3]; Compound 33 80 nmol/kg s.c. bolus): insignificant relief; relief of mechanical allodynia ([3]; Compound 33 120, 800 and 1200 nmol/kg s.c. bolus): significant relief of mechanical allodynia; duration of anti-allodynia ([3]; Compound 33 s.c. bolus): 2 to 3 h; time of peak anti-allodynia post-dosing ([3]; Compound 33 s.c. bolus): 0.75 to 1 h |
| O=C1CCc2c1no[n+]2[O-] [Compound 16] | 1.08 | 1.19 | 101.3% | 59.3% | 18.9 | 44.3% | 105.2% | 83.5% | 119.9 | 62.2% | 125.4% | 67.1 | 98.8% | 106.3% | 97.7% | 108.3 | 100.4% | 62.4^a % |  |
| Cc1c(C(=O)O)no[n+]1[O-] [Compound 6] | 0.31 | 0.53 | 61.5% | 91.1% | 8.1 | 115.0% | 138.7% | 109.7% | 110.5 | 111.2% | 88.2% | 88.0 | 128.0% | 98.2% | 79.0^a % | 149.0 | 83.9% | 60.4% |  |
| O=C(O)c1c(-c2ccc(F)cc2)no[n+]1[O-] [Compound 18] |  |  | 83.6% | 82.2% | 7.1 | 79.0% | 97.7% | 101.0% | 91.9 | 81.7% | 142.3^a % | 77.5 | 85.4% | 85.3% | 90.4% | 89.6 | 94.1% | 54.7^a % |  |
| [O-][n+]1onc(-c2ccccc2)c1CO [Compound 31] |  |  | 42.8^a % | 81.4% | 3.8 | 182.4^a % | 96.9^a % | 60.0^a % | 108.4 | 36.2^a % | 76.8^a % | 61.0 | 85.7% | 77.5^a % | 42.2^a % | 54.8 | 48.5^a % | 94.5% |  |
| CC(=O)c1c(-c2ccccc2)no[n+]1[O-] [Compound 27] |  |  | 46.0% | 66.7^a % | 22.4 | 73.8^a % | 128.2% | 60.0% | 83.2 | 86.4% | 56.4% | 84.4 | 88.3^a % | 78.2% | 115.4% | 162.4 | 108.6^a % | 56.5% |  |
| O=C(c1no[n+]([O-])c1-c1ccccc1)C(F)(F)F [Compound 22] | 1.63 | 2.52 | 66.1% | 62.4% | 0.3 | 18.2% | 77.9% | 87.5% | 68.4 | 82.1% | 65.2% | 59.2 | 70.5% | 104.6% | 89.0% | 73.2 | 59.4^b % | 47.0% |  |
| [O-][n+]1onc(-c2ccccc2)c1-c1ccccc1 [Compound 5] |  |  | 79.2% | 119.1% | 69.6 | 99.8% | 120.4% | 142.4% | 112.7 | 73.6% | 57.7% | 76.3 | 102.3% | 105.6% | 117.0% | 91.2 | 75.8% | 68.7% |  |
